One experiment has as its target phosphorylated active hERK2 enzyme (Homo sapiens (Human), UniProt P28482). The experiment in a line: Active Human ERK2 (hERK2) Activity Assay (IMAP-FP). In kind it is biochemical. The conditions noted are these: Table 5, 0.5 nM hERK2, 30 μM ATP, 10 point titration, read-out: AERK2 IC50. The procedure:
Assays Active Human ERK2 (hERK2) Activity Assay:
Activated ERK2 activity was determined in an IMAP-FP assay (Molecular Devices). […] The final reaction in each well of 25 μL consists of 0.5 nM hERK2, 900 nM unlabeled peptide, 80 nM labeled-peptide, and 30 μM ATP. Phosphorylation reactions were allowed to proceed for 60 minutes and were immediately quenched by the addition of 60 μL IMAP detection beads (1:1000 dilutions) in IMAP binding buffer (Molecular Devices) with 24 mM NaCl. Plates were read on EnVision reader after 60 minutes binding equilibration using Fluorescence Polarization protocol (Perkin Elmer).
Sequence of phosphorylated active hERK2 enzyme (P28482 whole entry): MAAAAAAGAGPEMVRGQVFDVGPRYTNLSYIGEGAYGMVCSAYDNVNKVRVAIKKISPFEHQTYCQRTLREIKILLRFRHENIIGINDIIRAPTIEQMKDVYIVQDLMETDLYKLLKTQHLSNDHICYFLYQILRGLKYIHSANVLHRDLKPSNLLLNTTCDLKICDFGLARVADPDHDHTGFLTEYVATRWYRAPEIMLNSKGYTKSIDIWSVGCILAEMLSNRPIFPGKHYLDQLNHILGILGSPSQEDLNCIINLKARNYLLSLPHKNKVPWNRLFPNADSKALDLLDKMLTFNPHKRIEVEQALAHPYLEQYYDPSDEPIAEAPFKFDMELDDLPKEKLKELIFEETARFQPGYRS
As a reminder, the IC50 is the concentration needed to halve the response being measured. Turning to `COCCS(=O)(=O)Nc1n[nH]c2cc(NC(=O)N[C@H](C)c3ccccc3)ncc12` [Example 54, 2-methoxy-N-[6-({[(1R)-1-phenylethyl]carbamoyl}amino)-1H-pyrazolo[4,3-c]pyridin-3-yl]ethanesulfonamide], the IC50 amounted to 810 nM.
As to `CCNc1n[nH]c2cc(NC(=O)N[C@H](C)c3ccc(F)cc3)ncc12` [Example 5, 1-[3-(ethylamino)-1H-pyrazolo[4,3-c]pyridin-6-yl]-3-[(1R)-1-(4-fluorophenyl)ethyl]urea], the IC50 was 1 nM.
On to `COCCN(C)c1n[nH]c2cc(NC(=O)N[C@H](C)c3ccccc3)ncc12` [Example 10, 1-{3-[(2-methoxyethyl)(methyl)amino]-1H-pyrazolo[4,3-c]pyridin-6-yl}-3-[(1R)-1-phenylethyl]urea], for which the IC50 is 42.1 nM.
For the compound `CCNc1n[nH]c2c(F)c(NC(=O)N[C@H](C)c3ccccc3)ncc12` [Example 57, (R)-1-(3-(Ethylamino)-7-fluoro-1H-pyrazolo[4,3-c]pyridin-6-yl)-3-(1-phenylethyl)urea], the IC50 came out at 3.05 nM.

The same experiment, now with this note: Table 6, 0.5 nM hERK2, 30 μM ATP, 10 point titration, read-out: AERK2 IC50.
As for `CSC1CCN(c2n[nH]c3cc(NC(=O)N[C@H](C)c4ccccc4)ncc23)CC1` [Example 427, 1-{3-[4-(methylsulfanyl)-piperidin-1-yl]-1H-pyrazolo[4,3-c]-pyridin-6-yl}-3-[(1R)-1-phenylethyl]urea], the IC50 was determined as 15.1 nM.
The same measure, in the same setting: then `C[C@@H](NC(=O)Nc1cc2[nH]nc(NCc3ccccn3)c2cn1)c1ccccc1` [Example 190, 1-[(1R)-1-phenylethyl]-3-{3-[(pyridin-2-yl-methyl)amino]-1H-pyrazolo[4,3-c]-pyridin-6-yl}urea], with 9.3 nM; and `Nc1n[nH]c2cc(NC(=O)NC3COc4ccccc43)ncc12` (centres unmarked) [Example 259, 1-(3-amino-1H-pyrazolo[4,3-c]pyridin-6-yl)-3-(2,3-dihydro-1-benzofuran-3-yl)-urea], with 325 nM; and `O=C(Nc1cc2[nH]nc(NC(=O)N3CC(F)(F)C3)c2cn1)N[C@H]1c2ccccc2OCC[C@H]1O` [Example 396], with 0.3 nM.
In the case of `COCCOC(=O)Nc1n[nH]c2cc(NC(=O)N[C@H](C)c3ccccc3)ncc12` [Example 221, 2-methoxyethyl [6-({[(1R)-1-phenyl-ethyl]carbamoyl}-amino)-1H-pyrazolo[4,3-c]-pyridin-3-yl]-carbamate], the IC50 amounted to 6.6 nM.
Consider `C[C@@H](O)[C@@H](NC(=O)Nc1cc2[nH]nc(N3CCOCC3)c2c(CO)n1)c1ccc(F)cc1` [Example 108, 1-[(1S,2R)-1-(4-Fluorophenyl)-2-hydroxypropyl]-3-[4-(hydroxymethyl)-3-morpholin-4-yl-1H-pyrazolo[4,3-c]pyridin-6-yl]urea], for which the IC50 was determined as 0.4 nM.
As to `C[C@@H]1CCN1c1n[nH]c2cc(NC(=O)N[C@H](C)c3ccccc3)ncc12` [Example 91, 1-{3-[(2R)-2-methylazetidin-1-yl]-1H-pyrazolo[4,3-c]-pyridin-6-yl}-3-[(1R)-1-phenylethyl]-urea], the IC50 was determined as 52 nM.
Same read-out and setting: as for `COCC1CN(c2n[nH]c3cc(NC(=O)N[C@H](C)c4ccccc4)ncc23)C1` [Example 81, 1-{3-[3-(methoxy-methyl)azetidin-1-yl]-1H-pyrazolo[4,3-c]-pyridin-6-yl}-3-[(1R)-1-phenylethyl]-urea], the figure is 8.5 nM; as for `C[C@@H](NC(=O)Nc1cc2[nH]nc(N)c2cn1)c1cccc(Cl)c1` [Example 272, 1-(3-amino-1H-pyrazolo[4,3-c]pyridin-6-yl)-3-[(1R)-1-(3-chloro-phenyl)ethyl]urea], 5.6 nM; as for `COC(=O)Nc1n[nH]c2cc(NC(=O)N[C@@H](c3ccc(F)cc3)C(C)(C)O)ncc12` [Example 390, methyl [6-({[(1S)-1-(4-fluorophenyl)-2-hydroxy-2-methylpropyl]-carbamoyl}amino)-1H-pyrazolo[4,3-c]pyridin-3-yl]-carbamate], 0.5 nM.
For `[2H]C([2H])([2H])C(=O)Nc1n[nH]c2cc(NC(=O)N[C@H](C)c3ccccc3)ncc12` [Example 115, (R)-N-(6-(3-(1-phenylethyl)ureido)-1H-pyrazolo[4,3-c]pyridin-3-yl)(acetamide-D3)], the IC50 stood at 0.8 nM.
On the same count and under the same terms, then `Nc1n[nH]c2cc(NC(=O)NC3CCCC3c3ccccc3)ncc12` (centres unmarked) [Example 261, 1-(3-amino-1H-pyrazolo[4,3-c]-pyridin-6-yl)-3-(2-phenylcyclopentyl)urea], with 6 nM.
The same measure, in the same setting: as for `CCNc1n[nH]c2cc(NC(=O)N[C@H](CC)c3ccc(Cl)cc3)ncc12` [Example 247, 1-[(1R)-1-(4-chlorophenyl)propyl]-3-[3-(ethylamino)-1H-pyrazolo[4,3-c]-pyridin-6-yl]urea], the figure is 2.2 nM; as for `C[C@@H](NC(=O)Nc1cc2[nH]nc(NC(=O)C(C)(C)C)c2cn1)c1ccccc1` [Example 215, 2,2-dimethyl-N-[6-({[(1R)-1-phenylethyl]-carbamoyl}amino)-1H-pyrazolo[4,3-c]pyridin-3-yl]-propanamide], 3.9 nM.
On the same count and under the same terms, as for `COC[C@@H](NC(=O)Nc1cc2[nH]nc(N3CC4CC3CO4)c2cn1)c1ccccc1` (stereo partly drawn) [Example 451, 1-[(1S)-2-methoxy-1-phenylethyl]-3-[3-(2-oxa-5-azabicyclo[2.2.1]-hept-5-yl)-1H-pyrazolo[4,3-c]-pyridin-6-yl]urea], the figure is 3 nM; as for `CCNc1n[nH]c2cc(NC(=O)NCc3c(F)cccc3Cl)ncc12` [Example 244, 1-(2-chloro-6-fluorobenzyl)-3-[3-(ethylamino)-1H-pyrazolo[4,3-c]-pyridin-6-yl]urea], 10.8 nM; as for `COC(=O)Nc1n[nH]c2cc(NC(=O)N[C@@H](c3ccc(F)cc3)C3(O)CCC3)ncc12` [Example 386, methyl [6-({[(S)-(4-fluorophenyl)(1-hydroxycyclobutyl)methyl]carbamoyl}amino)-1H-pyrazolo[4,3-c]-pyridin-3-yl]-carbamate], 0.4 nM.
As to `COC[C@@H](NC(=O)Nc1cc2[nH]nc(N3CC(O)C3)c2cn1)c1ccccc1` [Example 80, 1-[3-(3-hydroxy-azetidin-1-yl)-1H-pyrazolo[4,3-c]-pyridin-6-yl]-3-[(1S)-2-methoxy-1-phenylethyl]urea], the IC50 was 5.5 nM.
Same read-out and setting: as for `CC(C)CNc1n[nH]c2cc(NC(=O)N[C@H](C)c3ccccc3)ncc12` [Example 189, 1-{3-[(2-methylpropyl)-amino]-1H-pyrazolo[4,3-c]-pyridin-6-yl}-3-[(1R)-1-phenylethyl]urea], the figure is 1.7 nM; as for `CCNc1n[nH]c2cc(NC(=O)NCc3c(C)cccc3Cl)ncc12` [Example 227, 1-(2-chloro-6-methylbenzyl)-3-[3-(ethylamino)-1H-pyrazolo[4,3-c]pyridin-6-yl]urea], 11.3 nM; as for `COC[C@@H](NC(=O)Nc1cc2[nH]nc(Nc3ccccc3Cl)c2cn1)c1ccccc1` [Example 120, 1-{3-[(2-chlorophenyl)-amino]-1H-pyrazolo[4,3-c]pyridin-6-yl}-3-[(1S)-2-methoxy-1-phenylethyl]urea], 27.2 nM.
Consider `CCNC(=O)Nc1n[nH]c2cc(NC(=O)N[C@H](C)c3ccccc3)ncc12` [Example 313, (R)-1-(3-(3-ethylureido)-1H-pyrazolo[4,3-c]pyridin-6-yl)-3-(1-phenylethyl)urea], for which the IC50 was 5.6 nM.
